Test results published in article PMC7156458, “Synthetic biology based construction of biological activity-related library of fungal decalin-containing diterpenoid pyrones” (Nature Communications, 2020).
Values joined by “and” are separate entries in the source; they are usually repeats but may differ in a detail not shown here. Equal entries are not always repeated. Where two headings read alike, the source gives them in different places.

What was measured:
[1] = cytotoxicity in Drosophila DL1 cells; format: cell-based; settings: Drosophila, DL1 cells (embryonic macrophage-derived), DL1 cells
Experimental: (§1) We screened the DDPs on the Drosophila assay system for cytotoxicity, inhibitory activity of innate immune signalling and insecticidal activity. The cytotoxicity of the DDPs was evaluated using two cell lines, embryonic macrophage-derived DL1 cells[58]–[60] and larval blood cell-derived l(2)mbn cells, and their IC50 values are listed in Supplementary Table 23.

[2] = test system: DL1 cells; experiment: cytotoxicity in Drosophila DL1 cells; format: cell-based; settings: DL1 cells; for IC50: Drosophila melanogaster, cytotoxicity
Experimental: as §1

[3] = test system: human immunodeficiency virus-1 (HIV-1); experiment: anti-HIV MAGI assay; format: cell-based; settings: anti-HIV
From the text: We examined the inhibitory activities of DDPs against various species of bacteria (both gram-negative and gram-positive bacteria), fungi and viruses. […] In contrast, preliminary screening of the DDPs for anti-viral agents with hepatitis B virus (HBV), measles virus (MV), Epstein-Barr virus (EBV), herpes simplex virus (HSV) and human immunodeficiency virus-1 (HIV-1) indicated their selective inhibition of HIV.

[4] = test system: A549; experiment: cells; parameters: species or system JFCR39 human cancer cell lines; JFCR39 panel growth inhibition, sulforhodamine B total protein after 48 h; settings: Homo sapiens, A549, 48 h
Experimental: (§2) Supplementary Note 24. Antiproliferative effects across the panel of JFCR39 cancer cell lines A panel of 39 human cancer cell lines, termed JFCR39, were previously described13-16. Cells were grown in RPMI-1640 (FUJIFILM Wako Pure Chemical Corporation, Tokyo, Japan) supplemented with 1 µg mL-1 kanamycin and 5% (v/v) fetal bovine serum (Nichirei Biosciences Inc, Tokyo, Japan) and incubated at 37°C in a humidified atmosphere supplemented with 5% CO2. Drug efficacy was assessed as changes in total cellular protein after 48 hours of drug treatment using a sulforhodamine B assay. Assays were done in duplicate and the GI50 was calculated as described previously13,16. The antitumor profile across the JFCR39 panel, or fingerprints were then compared to reference database containing ~2000 compounds by COMPARE algorithm16,17. Initially, we evaluated new DDP analogues for their antiproliferative activities across the panel of 39 human cancer cell lines, JFCR39[50],[51].

[5] = test system: DMS273; experiment: cells; parameters: species or system JFCR39 human cancer cell lines; JFCR39 panel growth inhibition, sulforhodamine B total protein after 48 h; settings: Homo sapiens, DMS-273, 48 h
Experimental: as §2

[6] = test system: HCC2998; experiment: cells; parameters: species or system JFCR39 human cancer cell lines; JFCR39 panel growth inhibition, sulforhodamine B total protein after 48 h; settings: Homo sapiens, HCC 2998, 48 h
Experimental: as §2

[7] = test system: HCT-15; experiment: cells; parameters: species or system JFCR39 human cancer cell lines; JFCR39 panel growth inhibition, sulforhodamine B total protein after 48 h; settings: Homo sapiens, HCT-15, 48 h
Experimental: as §2

[8] = test system: HT-29; experiment: cells; parameters: species or system JFCR39 human cancer cell lines; JFCR39 panel growth inhibition, sulforhodamine B total protein after 48 h; settings: Homo sapiens, HT-29, 48 h
Experimental: as §2

[9] = test system: MKN-B; experiment: cells; parameters: species or system JFCR39 human cancer cell lines; JFCR39 panel growth inhibition, sulforhodamine B total protein after 48 h; settings: 48 h
Experimental: as §2

[10] = test system: MKN45; experiment: cells; parameters: species or system JFCR39 human cancer cell lines; JFCR39 panel growth inhibition, sulforhodamine B total protein after 48 h; settings: Homo sapiens, MKN-45, 48 h
Experimental: as §2

[11] = test system: OVCAR-4; experiment: cells; parameters: species or system JFCR39 human cancer cell lines; JFCR39 panel growth inhibition, sulforhodamine B total protein after 48 h; settings: Homo sapiens, OVCAR-4, 48 h
Experimental: as §2

[12] = test system: RXF-631L; experiment: cells; parameters: species or system JFCR39 human cancer cell lines; JFCR39 panel growth inhibition, sulforhodamine B total protein after 48 h; settings: RXF-631L, 48 h
Experimental: as §2

[13] = test system: SF-295; experiment: cells; parameters: species or system JFCR39 human cancer cell lines; JFCR39 panel growth inhibition, sulforhodamine B total protein after 48 h; settings: Homo sapiens, SF-295, 48 h
Experimental: as §2

[14] = test system: SF-539; experiment: cells; parameters: species or system JFCR39 human cancer cell lines; JFCR39 panel growth inhibition, sulforhodamine B total protein after 48 h; settings: Homo sapiens, SF-539, 48 h
Experimental: as §2

[15] = test system: SK-OV-3; experiment: cells; parameters: species or system JFCR39 human cancer cell lines; JFCR39 panel growth inhibition, sulforhodamine B total protein after 48 h; settings: Homo sapiens, SK-OV-3, 48 h
Experimental: as §2

[16] = test system: MKN-A; experiment: cells; parameters: species or system JFCR39 human cancer cell lines; JFCR39 panel growth inhibition, sulforhodamine B total protein after 48 h; settings: 48 h
Experimental: as §2

[17] = replicate 1, relative to DMSO 1%, read-out: % viability, viability 1
[18] = replicate 2, relative to DMSO 1%, read-out: % viability, viability 2
[19] = average of two replicates, read-out: IC50 Average
[20] = replicate 1, read-out: IC50 (1)
[21] = replicate 2, read-out: IC50 (2)
[22] = Human immunodeficiency virus 1, MAGI, average of numeric determinations, read-out: Avg. EC50

Compound: C=C1CCC2C(C)(CCC=C(C)C)C(O)CCC2(C)C1Cc1c(OC)oc(CO)c(C(=O)OC)c1=O (centres unmarked) [Compound 13]
- viability at 0.04 µM [1, 17]: 100%
- viability at 0.04 µM [1, 18]: 102%
- viability at 0.2 µM [1, 17]: 78.9%
- viability at 0.2 µM [1, 18]: 70.5%
- viability at 1 µM [1, 17]: 9.59%
- viability at 1 µM [1, 18]: 9.84%
- viability at 4 µM [1, 17]: 6.11%
- viability at 4 µM [1, 18]: 5.06%
- viability at 10 µM [1, 17]: 7.19%
- viability at 10 µM [1, 18]: 6.02%
- viability at 20 µM [1, 17]: 4.62%
- viability at 20 µM [1, 18]: 3.94%
- Luminescence Raw1 ([2]; 0.04 µM, replicate 1): 2061595
- Luminescence Raw2 ([2]; 0.04 µM, replicate 2): 2096579
- Luminescence Raw1 ([2]; 0.2 µM, replicate 1): 1624487
- Luminescence Raw2 ([2]; 0.2 µM, replicate 2): 1452825
- Luminescence Raw1 ([2]; 1 µM, replicate 1): 197587
- Luminescence Raw2 ([2]; 1 µM, replicate 2): 202634
- Luminescence Raw1 ([2]; 4 µM, replicate 1): 125835
- Luminescence Raw2 ([2]; 4 µM, replicate 2): 104201
- Luminescence Raw1 ([2]; 10 µM, replicate 1): 148189
- Luminescence Raw2 ([2]; 10 µM, replicate 2): 124032
- Luminescence Raw1 ([2]; 20 µM, replicate 1): 95187
- Luminescence Raw2 ([2]; 20 µM, replicate 2): 81125
- IC50 [2, 19]: 0.292 µM
- IC50 ([2]; average±SEM, read-out: IC50): 0.29 ± 0.02 µM
- IC50 [2, 20]: 0.311 µM
- IC50 [2, 21]: 0.273 µM
- EC50 [3, 22]: 0.0688 µM
- EC50 ([3]; Human immunodeficiency virus 1, MAGI, single determinations, read-out: Efficacy (EC50)): 0.0697 µM
- EC50 ([3]; single determinations, read-out: Efficacy (EC50)): 0.0611 µM and 0.0814 µM and 0.0631 µM
- GI50 [4]: 19.8 µM
- GI50 [5]: 16.3 µM
- GI50 [6]: 17.7 µM
- GI50 [7]: 18.5 µM
- GI50 [8]: 17.9 µM
- GI50 [9]: 15.7 µM
- GI50 [10]: 16.7 µM
- GI50 [11]: 15.5 µM
- GI50 [12]: 16.8 µM
- GI50 [13]: 11.9 µM
- GI50 [14]: 19.4 µM
- GI50 [15]: 16.3 µM

Compound: C=C1CCC2C(C)(CC(=O)C=C(C)C)C(O)CCC2(C)C1Cc1c(OC)oc(CO)c(C)c1=O (centres unmarked) [Compound 19]
- viability at 0.04 µM [1, 17]: 92.6%
- viability at 0.04 µM [1, 18]: 93.4%
- viability at 0.2 µM [1, 17]: 78.6%
- viability at 0.2 µM [1, 18]: 86.7%
- viability at 1 µM [1, 17]: 92.1%
- viability at 1 µM [1, 18]: 87%
- viability at 4 µM [1, 17]: 86.9%
- viability at 4 µM [1, 18]: 80.7%
- viability at 10 µM [1, 17]: 52.8%
- viability at 10 µM [1, 18]: 59.6%
- viability at 20 µM [1, 17]: 15.3%
- viability at 20 µM [1, 18]: 22.3%
- Luminescence Raw1 ([2]; 0.04 µM, replicate 1): 1907594
- Luminescence Raw2 ([2]; 0.04 µM, replicate 2): 1924545
- Luminescence Raw1 ([2]; 0.2 µM, replicate 1): 1618356
- Luminescence Raw2 ([2]; 0.2 µM, replicate 2): 1786055
- Luminescence Raw1 ([2]; 1 µM, replicate 1): 1896774
- Luminescence Raw2 ([2]; 1 µM, replicate 2): 1792907
- Luminescence Raw1 ([2]; 4 µM, replicate 1): 1789301
- Luminescence Raw2 ([2]; 4 µM, replicate 2): 1663075
- Luminescence Raw1 ([2]; 10 µM, replicate 1): 1087156
- Luminescence Raw2 ([2]; 10 µM, replicate 2): 1227796
- Luminescence Raw1 ([2]; 20 µM, replicate 1): 315492
- Luminescence Raw2 ([2]; 20 µM, replicate 2): 459001
- IC50 [2, 19]: 10.6 µM
- IC50 ([2]; average±SEM, read-out: IC50): 10.6 ± 0.23 µM
- IC50 [2, 20]: 10.3 µM
- IC50 [2, 21]: 10.8 µM
- EC50 [3, 22]: 1.6 µM
- GI50 [4]: 34.4 µM
- GI50 [5]: 9.98 µM
- GI50 [7]: 52.8 µM
- GI50 [8]: 46 µM
- GI50 [16]: 9.57 µM
- GI50 [9]: 15.2 µM
- GI50 [10]: 77.1 µM
- GI50 [11]: 52.6 µM
- GI50 [13]: 17.2 µM
- GI50 [14]: 65.8 µM
- GI50 [15]: 83.2 µM

Compound: C=C1CCC2C(C)(CC(=O)C=C(C)C)C(O)CCC2(C)C1Cc1c(O)c(C)c(C)oc1=O (centres unmarked) [Compound 7]
- viability at 0.04 µM [1, 17]: 129%
- viability at 0.04 µM [1, 18]: 132%
- viability at 0.2 µM [1, 17]: 133%
- viability at 0.2 µM [1, 18]: 135%
- viability at 1 µM [1, 17]: 120%
- viability at 1 µM [1, 18]: 138%
- viability at 4 µM [1, 17]: 83.5%
- viability at 4 µM [1, 18]: 117%
- viability at 10 µM [1, 17]: 36.5%
- viability at 10 µM [1, 18]: 39.8%
- viability at 20 µM [1, 17]: 13.4%
- viability at 20 µM [1, 18]: 14.2%
- Luminescence Raw1 ([2]; 0.04 µM, replicate 1): 2666434
- Luminescence Raw2 ([2]; 0.04 µM, replicate 2): 2708996
- Luminescence Raw1 ([2]; 0.2 µM, replicate 1): 2732080
- Luminescence Raw2 ([2]; 0.2 µM, replicate 2): 2789792
- Luminescence Raw1 ([2]; 1 µM, replicate 1): 2478515
- Luminescence Raw2 ([2]; 1 µM, replicate 2): 2838847
- Luminescence Raw1 ([2]; 4 µM, replicate 1): 1720040
- Luminescence Raw2 ([2]; 4 µM, replicate 2): 2405658
- Luminescence Raw1 ([2]; 10 µM, replicate 1): 751779
- Luminescence Raw2 ([2]; 10 µM, replicate 2): 819211
- Luminescence Raw1 ([2]; 20 µM, replicate 1): 275091
- Luminescence Raw2 ([2]; 20 µM, replicate 2): 293480
- IC50 [2, 19]: 8.75 µM
- IC50 ([2]; average±SEM, read-out: IC50): 8.75 ± 0.64 µM
- IC50 [2, 20]: 8.12 µM
- IC50 [2, 21]: 9.39 µM
- EC50 [3, 22]: 0.163 µM
- GI50 [4]: 66.7 µM
- GI50 [5]: 14.1 µM
- GI50 [7]: 55.6 µM
- GI50 [16]: 20.5 µM
- GI50 [9]: 37.7 µM
- GI50 [11]: 35.8 µM
- GI50 [12]: 65.9 µM
- GI50 [13]: 25.4 µM
- GI50 [14]: 61.4 µM
- GI50 [15]: 60.8 µM
